Reference: ChEMBL document CHEMBL5233254, “Anticancer fungal natural products: Mechanisms of action and biosynthesis” (Eur J Med Chem, 2020)
Values after ≈ are worked out from the molar mass of the structure shown.

Experiments:
[1] = Inhibition of full-length human MEK
MCF7 = assay: Cytotoxicity against human MCF7 cells; format: functional, cell-based
[2] = Inhibition of V-ATPase (unknown origin); parameters: species or system Homo sapiens
14-3-3 eta/c-RAF = 14-3-3 eta/c-RAF (Homo sapiens, UniProt P04049+Q04917); assay: Stabilization of 14-3-3 eta (unknown origin)/ c-Raf (unknown origin); format: protein-complex assay
14-3-3 eta/c-RAF, sequence (P04049 whole entry): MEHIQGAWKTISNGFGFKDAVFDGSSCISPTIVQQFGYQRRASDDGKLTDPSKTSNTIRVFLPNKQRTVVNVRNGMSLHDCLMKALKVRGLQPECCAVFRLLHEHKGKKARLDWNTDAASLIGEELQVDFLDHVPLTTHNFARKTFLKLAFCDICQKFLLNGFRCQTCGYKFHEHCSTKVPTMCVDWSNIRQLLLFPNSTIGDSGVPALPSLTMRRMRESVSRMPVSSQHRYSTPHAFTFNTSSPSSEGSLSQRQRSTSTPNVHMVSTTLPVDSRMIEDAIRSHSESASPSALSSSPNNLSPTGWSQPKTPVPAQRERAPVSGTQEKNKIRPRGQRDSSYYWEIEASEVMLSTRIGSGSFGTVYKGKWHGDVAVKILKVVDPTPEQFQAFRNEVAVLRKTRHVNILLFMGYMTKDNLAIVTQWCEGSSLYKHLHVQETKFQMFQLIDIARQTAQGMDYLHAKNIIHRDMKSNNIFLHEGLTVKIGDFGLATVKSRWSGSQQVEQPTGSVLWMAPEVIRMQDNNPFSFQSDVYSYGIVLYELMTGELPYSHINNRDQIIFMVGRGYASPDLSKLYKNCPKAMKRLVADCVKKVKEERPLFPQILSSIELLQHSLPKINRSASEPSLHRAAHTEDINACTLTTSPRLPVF
14-3-3 eta/c-RAF, sequence (Q04917 whole entry): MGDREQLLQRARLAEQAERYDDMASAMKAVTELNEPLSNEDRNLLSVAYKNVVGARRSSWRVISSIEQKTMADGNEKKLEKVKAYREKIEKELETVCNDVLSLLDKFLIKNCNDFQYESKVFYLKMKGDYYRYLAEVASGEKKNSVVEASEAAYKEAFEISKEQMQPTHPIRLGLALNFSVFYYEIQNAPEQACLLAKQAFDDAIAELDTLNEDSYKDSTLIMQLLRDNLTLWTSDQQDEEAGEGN

[3] = Anti-tumor activity against mouse lewis lung carcinoma cells allografted in mouse assessed as reduction in tumor growth at 2 mg/kg, po; format: functional; parameters: scale not given: the % may be the effect or the level left
[4] = target: T1, Heat shock factor protein 1 (Homo sapiens, UniProt Q00613); assay: Induction of HSF-1 (unknown origin) degradation assessed as ATPase activity by colorimetric assay
T1 sequence (Q00613 whole entry): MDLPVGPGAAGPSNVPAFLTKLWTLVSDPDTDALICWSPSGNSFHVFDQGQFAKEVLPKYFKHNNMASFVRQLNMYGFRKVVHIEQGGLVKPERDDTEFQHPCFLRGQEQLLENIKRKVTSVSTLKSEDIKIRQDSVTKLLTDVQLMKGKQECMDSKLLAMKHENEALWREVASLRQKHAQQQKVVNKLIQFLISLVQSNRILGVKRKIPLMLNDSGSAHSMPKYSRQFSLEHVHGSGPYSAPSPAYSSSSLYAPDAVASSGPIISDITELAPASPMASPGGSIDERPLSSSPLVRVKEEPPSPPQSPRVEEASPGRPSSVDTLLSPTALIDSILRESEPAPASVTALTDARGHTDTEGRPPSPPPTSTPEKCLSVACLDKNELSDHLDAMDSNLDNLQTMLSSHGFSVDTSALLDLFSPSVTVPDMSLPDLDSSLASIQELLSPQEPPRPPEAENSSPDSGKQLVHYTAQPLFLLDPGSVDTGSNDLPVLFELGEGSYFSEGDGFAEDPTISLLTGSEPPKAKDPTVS

[5] = Inhibition of PI3K (unknown origin); parameters: species or system Homo sapiens
Tubulin = assay: Binding affinity to tubulin (unknown origin) assessed as dissociation constant; format: protein-complex assay, Homo sapiens
HeLa = assay: Antimitotic activity against human HeLa cells; format: functional, cell-based
Tubulin (Homo sapiens) = Tubulin (Homo sapiens) (UniProt P68371+Q9H4B7+P0DPH7+P68366+Q13509+Q71U36+P04350+Q3ZCM7+P07437+P68363+Q9BQE3+Q6PEY2+Q13885+Q9BVA1+Q9BUF5); assay: Inhibition of microtubule polymerization in human HeLa cells at 20 uM relative to control; format: cell-based
[6] = Cytotoxicity against human endothelial cells; format: toxicity, cell-based; details: endothelial cell

Q: For COc1cc(O)c2c(c1)CCC[C@H](O)[C@H](O)C(=O)/C=C\C[C@H](C)OC2=O, which IC50 [1] is on record?
A: 4 µM

Q: Which IC50 (MCF7) does the source give for C[C@]12CCC3=C(C(=O)c4occ5c4[C@]3(C)CCC5=O)[C@@H]1CC[C@@H]2O here?
A: 15 µM

Q: With CC[C@@H](C)[C@@H]1NC(=O)[C@H]2CCCN2C(=O)[C@@H](CC(C)C)OC(=O)CCNC(=O)[C@H](C)N(C)C(=O)[C@H](C(C)C)N(C)C1=O as the compound, how does the IC50 [2] read?
A: 5.4 µM

Q: With COC[C@H]1O[C@@H](O[C@@H]2C3=C(C(C)C)CC[C@]3(C)/C=C3\[C@@H](CC[C@]3(O)COC)[C@@H](C)[C@H]2O)[C@H](O)[C@H]2OC3O[C@]21O[C@@]3(C)[C@@H]1CO1 as the compound, how does the EC50 (14-3-3 eta/c-RAF) read?
A: 60 µM

Q: Which Activity [3] does the source give for C[C@H]1C/C=C/[C@H]2[C@@H]3O[C@]3(C)[C@@H](C)[C@H]3[C@H](Cc4ccccc4)NC(=O)[C@]32OC(=O)O/C=C/[C@@](C)(O)C1=O [CYTOCHALASIN E] here?
A: 72%

Q: With C[C@H]1CCC/C=C/C(=O)c2c(O)cc(O)cc2CC(=O)O1 [DEHYDROCURVULARIN] as the compound, how does the IC50 [4] read?
A: 15.3 µM

Q: For C[C@@]12c3ccc4c(c3C(=O)c3occ(c31)C(=O)C[C@H]2O)CCC4=O [DEMETHOXYVIRIDIN], which IC50 [5] is on record?
A: 6.6 nM

Q: With COC1=CC(=O)C[C@@H](C)[C@]12Oc1c(Cl)c(OC)cc(OC)c1C2=O [GRISEOFULVIN] as the compound, how does the Kd (Tubulin) read?
A: 300 µM

Q: And the IC50 (HeLa)?
A: 25 µM

Q: And the inhibition (Tubulin (Homo sapiens))?
A: 75%

Q: For CO[C@@H]1[C@H](OC(=O)NC(=O)CCl)CC[C@]2(CO2)[C@H]1[C@@]1(C)O[C@@H]1CC=C(C)C [O-CHLOROACETYLCARBAMOYLFUMAGILLOL], which IC50 [6] is on record?
A: 10 pg/mL (≈ 0.0249 nM)
